# In US12509445B2, “Herbicidally active 4-cyclopropyl-6-[4-(trifluormethyl)pyrazol-1-yl)]pyrimidines” (Bayer Aktiengesellschaft, priority 2019, dated 2025):
# Tests used:
# Type in all cases: in vivo
# [1] = test system: Echinochloa crus-galli (ECHCG); test: Pre-emergence herbicidal action
# From the text: (§1) The abbreviations used here have the following meanings: • ABUTH Abutilon theophrasti • AMARE Amaranlhus retroflexus • CYPES Cyperus serotinus • ECHCGEchinocloa crus galli • LOLRI Lolium rigidum Gaudin • PHBPU Pharbitis purpurcum • SETVI Setaria viridis • VERPE Veronica persica • ALOMY Alopccurus myosuroides • AVEFA Avena fatua • DIGSA Digitaria sanguinalis • LOLMU Lolium multiflorum • MATIN Matricaria inodora • POLCO Polygonum convolvulus • STEME Stellaria media • VIOTR Viola tricolor
# (§2) Seeds of monocotyledonous and dicotyledonous weed plants and crop plants are placed in plastic or organic plant pots and covered with soil. The compounds of the invention, formulated in the form of wettable powders (WP) or as emulsion concentrates (EC), are then applied onto the surface of the covering soil as aqueous suspension or emulsion with addition of 0.5% additive at a water application rate of 600 l/ha (converted). After the treatment, the pots are placed in a greenhouse and kept under good growth conditions for the trial plants. After about 3 weeks, the effect of the preparations is scored visually in comparison with untreated controls as percentages. For example, 100% activity=the plants have died, 0% activity=like control plants.
# (§3) The compounds according to the invention were tested by the post-emergence and pre-emergence methods under the conditions described above for comparative purposes with the structurally closest compounds known from WO 2005/089551 A1 (D1).
# [2] = test system: Matricaria inodora (MATIN); test: Pre-emergence herbicidal action
# From the text: as §1, §2, §3
# Setaria viridis (SETVI) [3] = test: Pre-emergence herbicidal action
# From the text: as §1, §2, §3
# [4] = test system: Polygonum convolvulus (POLCO); test: Pre-emergence herbicidal action
# From the text: as §1, §2, §3
# Stellaria media (STEME) = test: Pre-emergence herbicidal action
# From the text: as §1, §2, §3
# [5] = test system: Alopecurus myosuroides (ALOMY); test: Pre-emergence herbicidal action
# From the text: as §1, §2, §3
# Viola tricolor (VIOTR) [6] = test: Pre-emergence herbicidal action
# From the text: as §1, §2, §3
# Veronica persica (VERPE) [7] = test: Post-emergence herbicidal action; conditions: 320 g/ha, visual rating after about 3 weeks vs untreated controls, 100% = plants have died
# Description: (§4) Seeds of monocotyledonous and dicotyledonous weeds and crop plants are placed in sandy loam in plastic or organic plant pots, covered with soil and cultivated in a greenhouse under controlled growth conditions. 2 to 3 weeks after sowing, the test plants are treated at the one-leaf stage. The compounds of the invention, formulated in the form of wettable powders (WP) or as emulsion concentrates (EC), are then sprayed onto the green parts of the plants as aqueous suspension or emulsion with addition of 0.5% additive at a water application rate of 600 l/ha (converted). After the test plants have been kept in the greenhouse under optimum growth conditions for about 3 weeks, the activity of the preparations is rated visually in comparison to untreated controls. For example, 100% activity=the plants have died, 0% activity=like control plants.
# as §1
# [8] = test system: Amaranthus retroflexus (AMARE); test: Post-emergence herbicidal action; conditions: 320 g/ha, visual rating after about 3 weeks vs untreated controls, 100% = plants have died
# Description: as §4, §1
# [9] = test system: Lolium rigidum Gaudin (LOLRI); test: Post-emergence herbicidal action; conditions: 320 g/ha, visual rating after about 3 weeks vs untreated controls, 100% = plants have died
# Description: as §4, §1
# [10] = test system: Pharbitis purpurea (PHBPU); test: Post-emergence herbicidal action; conditions: 320 g/ha, visual rating after about 3 weeks vs untreated controls, 100% = plants have died
# Description: as §4, §1
# Viola tricolor (VIOTR) [11] = test: Post-emergence herbicidal action; conditions: 320 g/ha, visual rating after about 3 weeks vs untreated controls, 100% = plants have died
# Description: as §4, §1
# [12] = test system: harmful plants such as Alopecurus myosuroides, Amaranthus retroflexus, Avena fatua, Echinochloa crus-galli, Matricaria inodora, Pharbitis purpurea, Polygonum …; test: Pre-emergence herbicidal action, summary in text; conditions: pre-emergence treatment
# From the text: as §2
# At the same time, some compounds according to the invention leave graminaceous crops such as barley, wheat, rye, millet/sorghum, maize, rice or sugarcane virtually undamaged when applied by the pre-emergence method, even at high active compound dosages. Some compounds are additionally also benign to dicotyledonous crops such as soya, cotton, oilseed rape or sugarbeet.
# Veronica persica (VERPE) [13] = test: Pre-emergence herbicidal action; conditions: 320 g/ha, visual scoring after about 3 weeks vs untreated controls, 100% = plants have died
# From the text: as §1, §2
# [14] = test system: Amaranthus retroflexus (AMARE); test: Pre-emergence herbicidal action; conditions: 320 g/ha, visual scoring after about 3 weeks vs untreated controls, 100% = plants have died
# From the text: as §1, §2
# [15] = test system: Lolium rigidum Gaudin (LOLRI); test: Pre-emergence herbicidal action; conditions: 320 g/ha, visual scoring after about 3 weeks vs untreated controls, 100% = plants have died
# From the text: as §1, §2
# [16] = test system: Pharbitis purpurea (PHBPU); test: Pre-emergence herbicidal action; conditions: 320 g/ha, visual scoring after about 3 weeks vs untreated controls, 100% = plants have died
# From the text: as §1, §2
# [17] = test system: Digitaria sanguinalis (DIGSA); test: Pre-emergence herbicidal action; conditions: 320 g/ha, visual scoring after about 3 weeks vs untreated controls, 100% = plants have died
# From the text: as §1, §2
# Avena fatua (AVEFA) = test: Pre-emergence herbicidal action; conditions: 320 g/ha, visual scoring after about 3 weeks vs untreated controls, 100% = plants have died
# From the text: as §1, §2
# [18] = test system: Echinochloa crus-galli (ECHCG); test: Post-emergence herbicidal action
# Description: as §4, §1, §3
# [19] = test system: Matricaria inodora (MATIN); test: Post-emergence herbicidal action; conditions: 80 g of a.i./ha, comparative test
# Description: as §4, §1, §3
# Setaria viridis (SETVI) [20] = test: Post-emergence herbicidal action
# Description: as §4, §1, §3
# [21] = test system: Alopecurus myosuroides (ALOMY); test: Post-emergence herbicidal action
# Description: as §4, §1, §3
# [22] = 80 g of a.i./ha, comparative test
# [23] = 320 g/ha, visual scoring after about 3 weeks vs untreated controls, 100% = plants have died
# [24] = 320 g/ha, visual rating after about 3 weeks vs untreated controls, 100% = plants have died
smiles,measurement,setting,value
FC(F)Oc1cc(Oc2nc(C3CC3)cc(-n3cc(C(F)(F)F)cn3)n2)ccn1 [Example I-003],Herbicidal action against ECHCG,[1]; [22],30%
same,Pre-emergence action ECHCG,[1]; [23],90%
same,Herbicidal action against MATIN,[2]; [22],90%
same,Pre-emergence action MATIN,[2]; [23],90%
same,Herbicidal action against SETVI,Setaria viridis (SETVI) [3]; [22],100%
same,Pre-emergence action SETVI,Setaria viridis (SETVI) [3]; [23],100%
same,Herbicidal action against POLCO,[4]; [22],20%
same,Pre-emergence action POLCO,[4]; [23],90%
same,Herbicidal action against STEME,Stellaria media (STEME); [22],90%
same,Pre-emergence action STEME,Stellaria media (STEME); [23],100%
same,Herbicidal action against ALOMY,[5]; [22],60%
same,Pre-emergence action ALOMY,[5]; [23],100%
same,Herbicidal action against VIOTR,Viola tricolor (VIOTR) [6]; [22],100%
same,Pre-emergence action VIOTR,Viola tricolor (VIOTR) [6]; [23],100%
same,Post-emergence action VERPE,Veronica persica (VERPE) [7],90%
same,Post-emergence action AMARE,[8],90%
same,Post-emergence action LOLRI,[9],90%
same,Post-emergence action PHBPU,[10],80%
same,Post-emergence action VIOTR,Viola tricolor (VIOTR) [11],90%
same,herbicidal action against harmful plants (in words),[12],good herbicidal action
same,Pre-emergence action VERPE,Veronica persica (VERPE) [13],100%
same,Pre-emergence action AMARE,[14],100%
same,Pre-emergence action LOLRI,[15],100%
same,Pre-emergence action PHBPU,[16],100%
same,Pre-emergence action DIGSA,[17],100%
same,Pre-emergence action AVEFA,Avena fatua (AVEFA),90%
same,Herbicidal action against ECHCG,[18]; [22],80%
same,Post-emergence action ECHCG,[18]; [24],90%
same,Herbicidal action against MATIN,[19],60%
same,Herbicidal action against SETVI,Setaria viridis (SETVI) [20]; [22],60%
same,Post-emergence action SETVI,Setaria viridis (SETVI) [20]; [24],80%
same,Herbicidal action against ALOMY,[21]; [22],60%
same,Post-emergence action ALOMY,[21]; [24],90%
